According to patent US20260176628A1, “TARGETED EPIGENETIC EDITING AS NOVEL THERAPY FOR MALIGNANT GLIOMA” (The Regents of the University of California, priority 2022, published 2026):

How the values were obtained:
LN18 human glioma cells [1] = test: Clonogenic assay, TMZ sensitivity; type: cell-based; conditions: TMZ 12 days total treatment, vs DMSO
LN18 human glioma cells [2] = test: MTT survival assay, TMZ sensitivity; type: cell-based; conditions: TMZ 25 μM or 100 μM, 5 days, vs DMSO
Description: FIG. 4 Effects of dCas9-DNMT3A-CD/MGMT-specific sgRNA targeted methylation on the sensitivity of glioma cells to temozolomide. […] Negative control: LN18 NSC cells. The “n” indicates the number of separate experiments performed for each cell type. Results were normalized to the average negative control treatment condition (drug vehicle DMSO). TMZ concentrations ranged from 25 µM to 100 µM. Horizontal bars for all figures represent post hoc Tukey's multiple comparisons test results for groups of interest following two-way ANOVA (“ns” indicates “p>0.05”; * indicates p<0.05; ** indicates p<0.01; *** indicates p<0.001; **** indicates p<0.0001). (a) TMZ sensitivity measured via MTT survival assays in LN18 cells co-expressing dCas9-DNMT3A-CD (d3A) and MGMT-targeting sgRNAs (sg1, 2, 3, 4) compared to NSC lines. […] MTT cell survival was calculated by subtracting […] for TMZ-treated cells (25 µM and 100 µM, 5 days) versus DMSO treatment control condition, followed by normalization to the average control condition.
Cell Survival Assays. […] Formazan product was extracted by cell lysis with DMSO (300 μL) and measured (560 nm absorbance with background subtraction of 660 nm). […]

MGMT CpG island = test: Bisulfite sequencing (BiSEQ) of TA clones; type: cell-based, human; conditions: for location of methylated CpG sites: LN18 dCas9-DNMT3A-CD/sgRNA clones, Region 1 (sgRNA4) or Region 2 (sgRNA1, 2, 3)
Source text: FIG. 2 Bisulfite sequencing of representative clones with induced methylation patterns of CpG sites at CRISPR-targeted regions within the MGMT CpG island. (a) Map of MGMT CpG island, 762 bp in length, encompassing promoter, exon 1, enhancer, and intron 1 regions. Comprehensive map of the MGMT gene with superimposed locations of Illumina probes (yellow boxes) as well as exon (salmon), intron (purple), and promoter/upstream (gray) regions. Locations of complementary sequences to the four sgRNAs are as shown. Open star, half-closed star and closed star regions indicate locations of differentially methylated Illumina probes. F1/R1 and F2/R2 indicate nested PCR primer pairs for Region 1 and Region 2, respectively. Inset: MGMT CpG island (individual CpG sites in light green) and relative locations of Region 1 and Region 2. CpG sites 22, 57, 72, and 96 indicate the specific sites flanking each region, numbered in order from 5′ to 3′ within the CpG island. Differentially methylated regions are shown (DMR1 and DMR2), located within assayed Region 1 and 2, respectively. MSP region is also shown within DMR2. Genetic regions and positions on Chromosome 10 were determined using the UCSC genome browser (GRCh37/hg19 assembly) and the 850K array probe annotation file provided by Illumina. (b) Lollipop schematic illustrating the distribution of CpG methylation sites in each representative clonal population (red circle=methylated site; gray circle=unmethylated site). Genomic DNA from LN18 cells containing either dCas9-DNMT3A/non-specific sgRNA or dCas9-DNMT3A/sgRNAs underwent sodium bisulfite treatment, followed by nested PCR amplification. Amplicons of Region 1 and Region 2 were obtained separately and used to generate individual clones for each region via TA cloning. Abbreviations for individual clone nomenclature (e.g., “4-NSC1” vs. “13-NSC1”): “4”=Region containing sgRNA4 target sequence; “13”=Region containing sgRNA 1, 2, 3 target sequences. “NSC” vs. “SgR” indicates whether clone source was transfected with non-specific sgRNA or sgRNA1, 2, 3, 4. Numbers following NSC or SgR designation indicate individual clone numbers. Each row of the schematic (per category, NSC or SgR) represents a single clone. Regional CpG sites as per Malley et al (2011): DMR1=CpG 25-50; DMR2=CpG 73-90; MSP=CpG 76-87 (MSP-F=CpG 76-80; MSP-R=CpG 84-87). Core/minimal promoter=CpG 50-62; Enhancer=CpG 82-87. […] Blue arrows indicate CpG sites that are methylated (converted from T-G to C-G). Region 1 includes the sequence targeted by sgRNA4 (s4). Region 2 includes the sequence targeted by sgRNA 1, 2 and 3 (s1, s2, s3).
Bisulfite Sequencing. DNA was isolated using DNEasy Blood & Tissue Kit (Qiagen, Catalog #69506). Bisulfite conversion was accomplished using EZ DNA Methylation-Gold (Zymo Research, Catalog #D5005) per kit protocol. Nested PCR primers were used as follows: […]
Region 1: First PCR primer pair F4/R4; second PCR pair F5/R4.
Region 2: First PCR primer pair F1/R1; second PCR pair F1/SeqR.
Sequencing reactions were performed using BigDye Terminator v3.1 Cycle Sequencing Kit (ThermoFisher, Cat #433750) with sequencing primers (R4 primer=Region 1; SeqR primer=Region 2); samples were purified by PCR Clean-Up Performa Spin Columns (EdgeBio Cat #13266) and submitted for Sanger sequencing analysis (Laragen, Culver City, CA).
TA Cloning. Sodium bisulfite-treated genomic DNA underwent nested PCR as above, for either Region 1 or 2. […]

MGMT = molecular target: T1, MGMT (Homo sapiens, UniProt P16455); conditions: Phase II clinical trial, cited from earlier work
T1 construct: host or cells: patients (clinical trial)
T1 sequence (P16455 1-207): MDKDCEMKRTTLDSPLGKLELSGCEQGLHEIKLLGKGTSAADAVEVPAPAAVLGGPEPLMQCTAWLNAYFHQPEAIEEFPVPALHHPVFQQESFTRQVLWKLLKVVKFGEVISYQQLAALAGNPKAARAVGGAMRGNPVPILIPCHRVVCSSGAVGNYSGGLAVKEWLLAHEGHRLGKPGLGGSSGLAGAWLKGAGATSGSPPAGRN

5′-GTATTACTGATATTGGTGGG-3′ (chemistry not given here) [NSC]
TMZ sensitivity (clonogenic survival) (LN18 human glioma cells [1]): Essentially no TMZ sensitivity
TMZ sensitivity (MTT survival) (LN18 human glioma cells [2]): Essentially no TMZ sensitivity

5′-GGTGCGCACCGTTTGCGACT-3′ (guide (5'-GGTGCGCACCGTTTGCGACT-3'; as printed in the source, key not given here) [sgRNA1]
location of methylated CpG sites (MGMT CpG island): CpG 77, 81-89

5′-AGGGCATGCGCCGACCCGGT-3′ (guide (5'-AGGGCATGCGCCGACCCGGT-3'; as printed in the source, key not given here) [sgRNA4]
location of methylated CpG sites (MGMT CpG island): CpG 22-38
methylation radius upstream from sgRNA (MGMT CpG island; Region 1, to upstream 5′ limit of amplicon (CpG 22)): 20 bp

Nc1nc(OCc2ccccc2)c2nc[nH]c2n1 [O-6-benzylguanine]
clinical benefit (MGMT): limited benefits
toxicity (MGMT; including off-target bone marrow suppression): severe dose-limiting toxicities

5′-AGGCGCCCTCACTTCGCCGT-3′ (guide (5'-AGGCGCCCTCACTTCGCCGT-3'; as printed in the source, key not given here) [sgRNA2]
location of methylated CpG sites (MGMT CpG island): CpG 77, 81-89

5′-CTTTGCGTCCCGACGCCCGC-3′ (guide (5'-CTTTGCGTCCCGACGCCCGC-3'; as printed in the source, key not given here) [sgRNA3]
location of methylated CpG sites (MGMT CpG island): CpG 77, 81-89
